The source of these data is patent US8097624B2, “Cycloalkyl derivatives of 3-hydroxy-4-pyridinones” (Apotex Inc., priority 2006, dated 2012).

Series [1] can be described thus: Metal complexation constants, Fe system (spectrophotometric titration; pM by Hyss). As to conditions: for Log β3: Fe(III) overall complexation constant; for pFe^3+: total iron 10^−6 M, ligand 10^−5 M, pH 7.4, calculated from experimental pKa and complexation constants. It counts as binding. The procedure:
Compounds of this invention are designed to improve properties to known deferiprone analogues. […]. The definition of pFe^3+ used herein is the concentration of ferric ion in solution when the total amount of iron equals 10^−6 M and the concentration of ligand is 10^−5 M and pH is 7.4. It is calculated using experimental determined pKa and metal complexation constants using Hyperquad software (Version 2.1, Peter Gans, University of Leeds). The lowering of the pKa value of the C3 phenolic OH to less than 8.8 ensures that a higher pFe^3+ value when combined with a favorable complexation constant β3. The concept of complexation is detailed below.
The stepwise and overall complexation constants of a bidentate ligand such as 3-hydroxy-4-pyridinone follow: Fe(III)+Ligand→Fe[Ligand]1K1 Fe[Ligand]1+Ligand→Fe[Ligand]2K2 Fe[Ligand]2+Ligand→Fe[Ligand]3K3 Complexation constant β3=K1.K2.K3
Stepwise formation constants for M^n+-ligand systems were determined by spectrophotometric titration when metal complexes have a strong absorbance in the visible region due to ligand to metal charge transfer. In a typical experiment, the sample solution was prepared according to the following method: Apo6619 (10.7 mg) was weighed into an 80-ml beaker, followed by the addition of 0.1 M NaCl (50 ml). The mixture was sonicated for 10 minutes to give a clear colorless solution. Iron stock solution (atomic absorption standard, Aldrich, 496 μl, 8.93E-06 moles) was pipetted into the solution followed by the addition of 1.000 N NaOH (137 μl). The molar ratio between the total iron and the total Apo6619 was 1:5.4. The mixture was allowed to equilibrate at room temperature overnight. Nitrogen was allowed to bubble through the solution. 1.000 N Hydrochloric acid (3 ml) was then added to the solution to give pH 1.5. The solution was allowed to equilibrate at 22° C. for 3 hours.
A sipper system was used for the circulation of the sample solution between the beaker and the flow cell.
The sample solution was titrated against standard NaOH solutions at 22° C. to reach pH 6.89. After each addition of base the solution was allowed to equilibrate until a constant pH reading was reached. The pH and the UV-Vis spectrum were recorded for each measurement. For each measurement enough base was added so that there was a slight increase in the absorbance of the spectrum. The solution was titrated until there was no obvious increase in the spectra after several subsequent additions of base. Altogether 64 measurements were taken to finish the experiment.
[…]; pM^n+ is defined as −log [M(H2O)m]^n+ at physiological conditions, i.e.: pH 7.4, a ligand concentration of 10 μM, and a metal concentration of 1 μM.
To calculate pM^n+ for a MLn system, βn and pKa values are needed (βn are the formation constants for M^n++n L^− ? MLn; pKa are the equilibrium constants for L^−+n H^+ ? LHn^(n−1)+). The pM^n+ can be calculated by using Hyss software (Hyperquad Stimulation and Speciation software: HYSS2© 2000 Protonic Sofware).

In series [2] the test system is Iron Overloaded Rat. Put plainly: Urinary and fecal iron excretion in the iron overloaded rat (first study, 450 μmoles/kg). It counts as in vivo. As to conditions: for urinary excretion of iron compared with deferiprone: 450 μmol/kg; for Fecal excretion (fecal iron, three days after chelator administration): 450 μmoles/kg oral, n=6, mean ± 1SD. The source says:
The purpose of this study was to determine the effectiveness of Apo6619 and Apo6617 in promoting iron excretion in the iron overloaded rat model. Iron overloading was achieved by administration of iron dextran. Iron overloading using iron dextran has previously been used to assess chelator efficacy in mice (Kontoghiorghes G. J., Mol. Pharmacol. 1986, 30(6), 670-3; Bartfay et al., Cardiovasc Res. 1999, 43(4), 892-900), gerbils (Hershko et al., J. Lab Clin Med 2002, 139, 50-58), rats (Rakba N. Biochem Pharmacol. 1998, 55(11):1796-1806) and primates (Bergeron et. al., Blood, 1992, 79(7), 1882-1890). The iron loading regime used in this study results in a 20-fold increase in liver iron and a 3.8-fold increase in cardiac iron levels in male rats.
Six male Sprague-Dawley rats (weighing between 200-250 gms) were received from Charles River Laboratories, Montreal, Quebec, Canada. Rats were iron loaded by administration of iron dextran intraperitoneally at a dose of 100 mg/kg, twice weekly for a period of 4 weeks for a total of 8 injections (iron dextran, Sigma). The total volume of iron dextran injected was 1 mL/kg. Following an eight week period, rats were transferred to metabolic cages (one rat/cage). Once the animals were in the metabolic cages, excreta (both urine and feces) were collected daily for at least 3 day prior to and 4 days following the administration of each chelator. Each of the two chelators (Apo6619 and Apo6617) was administered consecutively. Chelators were administered as a single dose of 450 μmoles/kg by oral gavage at a dose volume of 2-4 mL/kg. The animals were weighed prior to dosing to enable exact dosage administration. Animals were checked daily (eyes, skin and movement) after chelator administration to determine if there were any obvious signs of ill health. Urine and feces were stored at −20° C. until analysis for total iron concentrations.
Rats were housed in a climate and light controlled environment (temperature: 19-25° C., relative humidity 40%, 12 hrs light/dark cycle) throughout the study. During the acclimatization, iron loading and equilibration phases, rats were placed in standard cages (2 rats/cage), fed standard rodent chow and given regular tap water ad libitum. Rats were transferred to metabolic cages (one rat/cage, Nalgene, Rochester N.Y.) after iron loading and equilibration. Three days before placement of the rats in the metabolic cages, rats were fed a low iron diet (3 ppm iron, Dyets Inc., Bethlehem, Pa.) and given Millipore water ad libitum. Rats were continued on the low iron diet for the duration of the study. The purpose of placing animals on a low iron diet was to reduce the background noise produced by dietary iron in the fecal samples.
A 50 mg/ml dosing solution of the chelator of formula I (570 mg) was first dissolved in a mixture of Millipore water (2 ml) and 6N HCl (0.4 ml) and brought up to the final volume (11.4 ml) with Millipore water (9 ml). Final pH of the solutions was adjusted to pH 4 with diluted sodium hydroxide solution. Solutions were protected from light and prepared freshly prior to each administration.
Urine and feces samples were shipped to the Trace Elements Laboratory at the London Health Sciences Center, London, Ontario, Canada for analysis of total iron concentration. Briefly, feces samples were prepared by adding water, heating to 98° C., vortexing and subsequently freeze drying. The samples were then mixed, and a representative subsample taken and digested with boiling HNO3 and H2O2. Feces samples were then diluted 1:100 with ultrapure water prior to running using a high resolution sector field ICP-MS (Finnigan Element 1). Urine samples were digested with 0.1% HNO3 and diluted 1/10 prior to running on the ICP-MS. Appropriate calibration curves using iron spiked samples and NIST traceable standards were used. Samples lying above or below the quantification range were re-run. […]

Where [3] appears, read: single oral dose 450 μmoles/kg, n=6.

In turn, `Cc1cc(=O)c(O)c(C(=O)NC2CC2)n1C` [Apo6617, 3-Hydroxy-1,6-dimethyl-4-oxo-1,4-dihydro-pyridine-2-carboxylic Acid Cyclopropylamide] yielded a melting point of 260 to 262 °C. Besides, in series [1], the “Log β3” value turned out to be 33.6 and the “pFe^3+” value is on record as 20.8. Further, in series [2], the “urinary excretion of iron compared with deferiprone” value is on record as “significantly higher than deferiprone” and the “Fecal excretion (fecal iron, three days after chelator administration)” value (“Fecal excretion” below) turned out to be 4411 ± 790 µg/day/kg. Besides, in series [2] (setting [3]), the “urinary iron excretion one day after chelator administration” value (“urinary iron excretion one day” for short) was determined as 164 ± 55 µg/day/kg and the “urinary iron excretion second day after chelator administration” value (shortened to “urinary iron excretion second day”) was 17 ± 13 µg/day/kg.

In the case of `CNC(=O)c1c(O)c(=O)cc(C)n1C1CC1` [Apo6619, 1-Cyclopropyl-3-hydroxy-6-methyl-4-oxo-1,4-dihydro-pyridine-2-carboxylic Acid Methylamide], the melting point is 258 to 260 °C (dec.). Further, in series [1], the “Log β3” value turned out to be 33.4 and the “pFe^3+” value is 20.7. In addition, the “PM Fe(III)” value in series [1] (pH 7.4, ligand 10 μM, metal 1 μM) stood at 20.5. In series [2], the “urinary excretion of iron compared with deferiprone” value was “significantly higher than deferiprone” and the “Fecal excretion” value stood at 4154 ± 1245 µg/day/kg. Besides, in series [2] (setting [3]), the “urinary iron excretion one day” value was found to be 240 ± 131 µg/day/kg, the “urinary iron excretion second day” value was 16 ± 5 µg/day/kg and the “urinary iron excretion third day after chelator administration” value came to 5 ± 1 µg/day/kg.

As to `Cc1c(O)c(=O)ccn1C` [deferiprone, 1,2-dimethyl-3-hydroxy-4-pyridinone, reference compound], in series [1], the “Log β3” value came out at 36.3 and the “pFe^3+” value was 19.7. Besides, the “Fecal excretion” value in series [2] turned out to be 2157 ± 169 µg/day/kg. Further, in series [2] (setting [3]), the “urinary iron excretion one day” value worked out at 80 ± 32 µg/day/kg and the “urinary iron excretion second day” value is on record as “returned to baseline”.

As a reminder, the melting point is the temperature, or range, at which the solid turns liquid.
